Assay results reported in patent US8148391B2 (Cephalon, Inc., priority 2006, dated 2012).
Where two headings read alike, the source gives them in different places.

How the values were obtained:
[1] = target: T1, baculovirus-expressed ALK (Homo sapiens, UniProt Q9UM73); experiment: ALK Kinase Assay (ELISA-type, time-resolved fluorescence); format: biochemical
T1 construct: host or cells: baculovirus expression system
Procedure, shortened: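 Plates coated with phospholipase C-γ substrate (10 μg/mL in TBS); reaction started with 30 ng/ml ALK and run 15 min at 37° C. Phosphorylated substrate detected with Eu-N1-labeled PT66 antibody. IC50 from sigmoidal variable-slope fit of percent inhibition vs log concentration.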

[2] = target: T2, c-Met (cytoplasmic domain) (Homo sapiens, UniProt P08581); experiment: c-Met Kinase Assay (same methods as for ALK, with modifications); format: biochemical
T2 construct: 10 ng/mL c-Met (cytoplasmic domain, Invitrogen Corporation #PV3143); purchased Invitrogen Corporation PV3143
Procedure, shortened: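 Europium-labeled PT66 antibody (Eu-N1) detects substrate phosphorylation on wells coated with phospholipase C-γ at 10 μg/mL. The kinase, the cytoplasmic domain of c-Met at 10 ng/mL, starts the reaction, which proceeds 15 minutes at 37° C.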

[3] = 1 μM ATP (Km level), read-out: ALK Activity (ALK Kinase Inhibition, IC50)
[4] = 1 μM ATP (Km level), read-out: cMet Activity (c-Met Kinase Inhibition, IC50)
[5] = ALK kinase inhibition, 1 μM ATP, read-out: ALK Activity
[6] = c-Met kinase inhibition, 1 μM ATP, read-out: cMet Activity

T1 sequence (Q9UM73 19-1620): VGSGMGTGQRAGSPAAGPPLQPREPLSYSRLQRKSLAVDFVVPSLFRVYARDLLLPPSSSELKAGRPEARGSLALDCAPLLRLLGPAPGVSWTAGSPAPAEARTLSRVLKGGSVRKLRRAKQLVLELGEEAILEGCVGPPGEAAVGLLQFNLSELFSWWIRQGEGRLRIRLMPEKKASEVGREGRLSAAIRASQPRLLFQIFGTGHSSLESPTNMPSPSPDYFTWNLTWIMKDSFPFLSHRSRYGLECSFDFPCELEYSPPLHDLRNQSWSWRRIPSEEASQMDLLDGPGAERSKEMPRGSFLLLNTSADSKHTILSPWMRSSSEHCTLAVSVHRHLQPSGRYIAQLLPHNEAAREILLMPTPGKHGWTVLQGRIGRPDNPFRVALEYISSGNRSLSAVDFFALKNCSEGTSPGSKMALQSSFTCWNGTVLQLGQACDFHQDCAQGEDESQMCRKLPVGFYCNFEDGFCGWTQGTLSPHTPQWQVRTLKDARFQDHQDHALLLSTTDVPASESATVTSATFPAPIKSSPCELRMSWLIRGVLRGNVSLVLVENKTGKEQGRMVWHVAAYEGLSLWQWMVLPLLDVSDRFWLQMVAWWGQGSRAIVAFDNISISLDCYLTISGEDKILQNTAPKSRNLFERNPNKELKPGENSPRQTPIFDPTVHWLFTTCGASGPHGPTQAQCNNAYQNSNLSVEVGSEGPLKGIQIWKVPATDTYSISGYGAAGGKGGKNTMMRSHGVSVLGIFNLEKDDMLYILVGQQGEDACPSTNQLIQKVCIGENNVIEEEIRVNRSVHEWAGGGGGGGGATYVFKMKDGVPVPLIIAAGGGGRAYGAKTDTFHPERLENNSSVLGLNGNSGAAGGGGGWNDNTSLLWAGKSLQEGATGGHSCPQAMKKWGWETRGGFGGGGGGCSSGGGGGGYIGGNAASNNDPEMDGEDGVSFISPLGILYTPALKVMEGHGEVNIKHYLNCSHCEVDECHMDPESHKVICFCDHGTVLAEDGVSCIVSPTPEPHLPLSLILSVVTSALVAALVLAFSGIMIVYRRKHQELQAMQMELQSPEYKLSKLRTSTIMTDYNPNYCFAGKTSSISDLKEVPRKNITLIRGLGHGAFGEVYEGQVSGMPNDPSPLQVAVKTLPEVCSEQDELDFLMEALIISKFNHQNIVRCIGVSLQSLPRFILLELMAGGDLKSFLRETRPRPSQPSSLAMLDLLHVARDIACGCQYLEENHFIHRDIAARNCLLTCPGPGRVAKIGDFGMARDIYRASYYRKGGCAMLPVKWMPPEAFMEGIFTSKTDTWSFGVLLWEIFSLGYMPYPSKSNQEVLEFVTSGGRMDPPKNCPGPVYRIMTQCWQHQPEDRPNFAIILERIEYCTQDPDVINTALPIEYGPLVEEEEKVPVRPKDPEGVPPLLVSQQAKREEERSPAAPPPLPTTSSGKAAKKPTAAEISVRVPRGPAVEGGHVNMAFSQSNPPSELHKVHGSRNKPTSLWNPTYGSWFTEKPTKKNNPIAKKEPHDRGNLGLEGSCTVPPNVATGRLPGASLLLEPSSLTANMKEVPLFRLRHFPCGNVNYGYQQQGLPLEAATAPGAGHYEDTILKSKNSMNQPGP
T2 sequence (P08581 956-1390 limits assumed): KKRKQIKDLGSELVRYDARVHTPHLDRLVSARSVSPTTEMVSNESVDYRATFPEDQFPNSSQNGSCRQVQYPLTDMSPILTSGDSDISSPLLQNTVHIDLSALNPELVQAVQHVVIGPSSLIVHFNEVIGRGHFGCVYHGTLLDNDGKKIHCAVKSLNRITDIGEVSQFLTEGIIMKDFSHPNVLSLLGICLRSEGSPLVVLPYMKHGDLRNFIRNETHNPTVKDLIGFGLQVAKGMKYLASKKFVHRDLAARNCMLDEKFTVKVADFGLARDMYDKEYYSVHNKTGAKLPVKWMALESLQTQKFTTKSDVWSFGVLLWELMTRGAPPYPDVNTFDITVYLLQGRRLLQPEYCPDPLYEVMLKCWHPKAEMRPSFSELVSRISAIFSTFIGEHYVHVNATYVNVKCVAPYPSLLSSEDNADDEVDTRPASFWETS

SMILES	IC50 [1, 3]	IC50 [2, 4]	other results
CNC(=O)c1sccc1Nc1nc(Nc2ccc3c(c2)NC(=O)C(NC(C)=O)CC3(C)C)ncc1Cl (centres unmarked) [Example 1291, 3-[2-(3-Acetylamino-5,5-dimethyl-2-oxo-2,3,4,5-tetrahydro-1H-1-benzazepin-8-ylamino)-5-chloro-pyrimidin-4-ylamino]-thiophene-2-carboxylic acid methylamide]	–	–	IC50 ([1]; 1 μM ATP (Km level), 30 ng/ml ALK, 37° C., 15 minutes, read-out: ALK Activity (ALK kinase inhibition, IC50 class)): 1000 to 10000 nM; IC50 ([2]; 1 μM ATP (Km level), 10 ng/mL c-Met, read-out: cMet Activity (c-Met kinase inhibition, IC50 class)): < 100 nM
COc1cc(N2CCOCC2)ccc1Nc1nc(Nc2ccc3c(c2OC)CCC(N2CCCC(O)C2)CC3)ncc1Cl (mixture of isomers) [Example 913, 1-{2-[5-Chloro-4-(2-methoxy-4-morpholin-4-yl-phenylamino)-pyrimidin-2-ylamino]-1-methoxy-6,7,8,9-tetrahydro-5H-benzocyclohepten-7-yl}-piperidin-3-ol]	< 100 nM	> 10000 nM	–
COc1cc2c(cc1Nc1ncc(Cl)c(Nc3ccc(N4CCN(C)CC4)c(C)c3)n1)CCN(CC(F)F)CC2 [Example 765, 5-Chloro-N*2*-[3-(2,2-difluoro-ethyl)-8-methoxy-2,3,4,5-tetrahydro-1H-benzo[d]azepin-7-yl]-N*4*-[3-methyl-4-(4-methyl-piperazin-1-yl)-phenyl]-pyrimidine-2,4-diamine]	< 100 nM	> 10000 nM	–
CNC(=O)c1ccsc1Nc1nc(Nc2ccc3c(c2)NC(=O)CCC3(C)C)ncc1Cl [Example 1486, 2-[5-Chloro-2-(5,5-dimethyl-2-oxo-2,3,4,5-tetrahydro-1H-benzo[b]azepin-8-ylamino)-pyrimidin-4-ylamino]-thiophene-3-carboxylic acid methyl amide]	–	–	IC50 [1, 5]: 1000 to 10000 nM; IC50 [2, 6]: 1000 to 10000 nM
COc1cc(N2CCOCC2)ccc1Nc1nc(Nc2ccc3c(c2OC)CCCC(N2CCOCC2)C3)ncc1Cl (centres unmarked) [Example 952, 5-Chloro-N(4)-(2-methoxy-4-morpholin-4-yl-phenyl)-N(2)-(1-methoxy-6-morpholin-4-yl-6,7,8,9-tetrahydro-5H-benzocyclohepten-2-yl)-pyrimidine-2,4-diamine]	< 100 nM	> 10000 nM	–
CNC(=O)c1ccccc1Nc1nc(Nc2ccc3c(c2)C2CCC3CN(C(C)=O)C2)ncc1Cl (centres unmarked) [Example 283, 2-[2-(10-Acetyl-10-aza-tricyclo[6.3.2.0*2,7*]trideca-2,4,6-trien-4-ylamino)-5-chloro-pyrimidin-4-ylamino]-N-methyl-benzamide]	–	–	IC50 ([1]; ALK kinase inhibition, 1 μM ATP (Km level), read-out: ALK Activity): < 100 nM; IC50 ([2]; c-Met kinase inhibition, 1 μM ATP (Km level), read-out: cMet Activity): < 100 nM
CNC(=O)c1scc(C)c1Nc1nc(Nc2ccc3c(c2)CN(C)C(=O)CC3)ncc1Cl [Example 1799, 3-[5-Chloro-2-(2-methyl-3-oxo-2,3,4,5-tetrahydro-1H-benzo[c]azepin-8-ylamino)-pyrimidin-4-ylamino]-4-methyl-thiophene-2-carboxylic acid methylamide]	–	–	IC50 [1, 5]: < 100 nM; IC50 [2, 6]: < 100 nM

Second part, led by results:

IC50 [1, 3]	IC50 [2, 4]	SMILES	other results
< 100 nM	100 to 1000 nM	CS(=O)(=O)N[C@@H]1CCCC[C@H]1Nc1nc(Nc2ccc3c(c2)CCC(NCC(F)(F)F)CC3)ncc1Cl (stereo partly drawn) [Example 656, N-((1R,2R)-2-{5-Chloro-2-[7-(2,2,2-trifluoro-ethylamino)-6,7,8,9-tetrahydro-5H-benzocyclohepten-2-ylamino]-pyrimidin-4-ylamino}-cyclohexyl)-methanesulfonamide]	–
< 100 nM	> 10000 nM	COc1cc2c(cc1Nc1ncc(Cl)c(Nc3ccc(N(C)C)cc3-n3cccn3)n1)CCN(CC(=O)N(C)C)CC2 [Example 631, 2-{7-[5-Chloro-4-(4-dimethylamino-2-pyrazol-1-yl-phenylamino)-pyrimidin-2-ylamino]-8-methoxy-1,2,4,5-tetrahydro-benzo[d]azepin-3-yl}-N,N-dimethyl-acetamide]	–
< 100 nM	1000 to 10000 nM	CNC(=O)c1cccc(Nc2nc(Nc3ccc4c(c3)C(C)(C)CCC(=O)N4C)ncc2Cl)c1 [Example 670, 3-[5-Chloro-2-(1,5,5-trimethyl-2-oxo-2,3,4,5-tetrahydro-1H-benzo[b]azepin-7-ylamino)-pyrimidin-4-ylamino]-N-methyl-benzamide]	–
